The values that follow come from PubChem BioAssay AID1259407 (Chemical Carcinogenesis Research Information System (CCRIS), 2018).

The subject of the series is CCRIS mutagenicity, Ames/micronucleus/aberration tests. As to the kind of experiment: CCRIS mutagenicity studies.
The mark [1] stands for this setting: Test System: AMES SALMONELLA TYPHIMURIUM, Strain/Indicator: TA98, Metabolic Activation: NONE, Method: PREINCUBATION
Setting [2] is: Test System: AMES SALMONELLA TYPHIMURIUM, Strain/Indicator: TA100, Metabolic Activation: NONE, Method: PREINCUBATION
[3] abbreviates: Test System: AMES SALMONELLA TYPHIMURIUM, Strain/Indicator: TA100, Metabolic Activation: NONE, Method: STANDARD PLATE.
[4] abbreviates: Test System: AMES SALMONELLA TYPHIMURIUM, Strain/Indicator: TA102, Metabolic Activation: NONE, Method: PREINCUBATION
Setting [5] is: Test System: AMES SALMONELLA TYPHIMURIUM, Strain/Indicator: TA1535, Metabolic Activation: NONE, Method: PREINCUBATION

Calls of active or inactive are those of the source. How the calls were made is not given here.

With `Cc1cncc(C)n1`, the mutagenic call was “inactive; negative” under setting [1]; “active; positive” (Test System: AMES SALMONELLA TYPHIMURIUM, Strain/Indicator: TA98, Metabolic Activation: NONE, Method: STANDARD PLATE); “inactive; negative” (Test System: AMES SALMONELLA TYPHIMURIUM, Strain/Indicator: TA98, Metabolic Activation: RAT, LIVER, S-9, AROCLOR 1254, Method: PREINCUBATION); “inactive; negative” (Test System: AMES SALMONELLA TYPHIMURIUM, Strain/Indicator: TA98, Metabolic Activation: RAT, LIVER, S-9, AROCLOR 1254, Method: STANDARD PLATE); “inactive; negative” under setting [2]; “inactive; negative” under setting [3]. In addition, the mutagenic call is “inactive; negative” (Test System: AMES SALMONELLA TYPHIMURIUM, Strain/Indicator: TA100, Metabolic Activation: RAT, LIVER, S-9, AROCLOR 1254, Method: PREINCUBATION); “inactive; negative” (Test System: AMES SALMONELLA TYPHIMURIUM, Strain/Indicator: TA100, Metabolic Activation: RAT, LIVER, S-9, AROCLOR 1254, Method: STANDARD PLATE); “inactive; negative” under setting [4]; “inactive; negative” (Test System: AMES SALMONELLA TYPHIMURIUM, Strain/Indicator: TA102, Metabolic Activation: RAT, LIVER, S-9, AROCLOR 1254, Method: PREINCUBATION).
For `[Cl][Ni][Cl]`, the mutagenic call was “active; positive” (End Point: IN VITRO MICRONUCLEUS, Test System: CHL/IU CELLS, Metabolic Activation: NONE); “inactive; negative” under setting [4]; “inactive; negative” under setting [5]; “inactive; negative” (Test System: AMES SALMONELLA TYPHIMURIUM, Strain/Indicator: TA1538, Metabolic Activation: NONE, Method: PREINCUBATION); “inactive; negative” (Test System: AMES SALMONELLA TYPHIMURIUM, Strain/Indicator: TA1975, Metabolic Activation: NONE, Method: PREINCUBATION); “inactive; negative” (Test System: AMES SALMONELLA TYPHIMURIUM, Strain/Indicator: TA1978, Metabolic Activation: NONE, Method: PREINCUBATION). Also, the mutagenic call is, setting by setting: (Test System: CHINESE HAMSTER G10, Strain/Indicator: G10 (GPT)/6-THIOGUANINE, Metabolic Activation: NONE) “active; positive”; (Test System: CHINESE HAMSTER G10, Strain/Indicator: G10/6-THIOGUANINE, Metabolic Activation: NONE) “active; positive”; (Test System: CHINESE HAMSTER G12, Strain/Indicator: G12 (GPT)/6-THIOGUANINE, Metabolic Activation: NONE) “active; positive”; (Test System: CHINESE HAMSTER G12, Strain/Indicator: G12/6-THIOGUANINE, Metabolic Activation: NONE) “active; positive”; (Test System: CHINESE HAMSTER V-79, Strain/Indicator: SP5 V-79 (HPRT)/6-THIOGUANINE, Metabolic Activation: NONE, Method: STANDARD PLATE) “inactive; negative”; (Test System: CHINESE HAMSTER V-79, Strain/Indicator: SPD8 V-79 (HPRT)/6-THIOGUANINE, Metabolic Activation: NONE, Method: STANDARD PLATE) “active; positive”. The mutagenic call is, setting by setting: (Test System: E. COLI, Strain/Indicator: WP2 UVRA, Metabolic Activation: NONE, Method: SPOT TEST) “active; positive”; (Test System: E. COLI, Strain/Indicator: WP2 UVRA, Metabolic Activation: NONE, Method: STANDARD PLATE) “active; positive”; (Test System: UDS HUMAN AMNION FL CELL LINE, Strain/Indicator: THY INCORP, Metabolic Activation: NONE, Method: LIQUID SCINTILLATION COUNTING) “active; positive”.
Take `CC1(C)CC(N)CC(C)(CN)C1` (stereo not drawn): the mutagenic call by setting is: under setting [1], “inactive; negative”; (Test System: AMES SALMONELLA TYPHIMURIUM, Strain/Indicator: TA98, Metabolic Activation: RAT, LIVER, S-9, PCB, Method: PREINCUBATION) “inactive; negative”; under setting [2], “inactive; negative”; (Test System: AMES SALMONELLA TYPHIMURIUM, Strain/Indicator: TA100, Metabolic Activation: RAT, LIVER, S-9, PCB, Method: PREINCUBATION) “inactive; negative”.
For `Nc1ccc(N)c2ccccc12`, the mutagenic call (Test System: AMES SALMONELLA TYPHIMURIUM, Strain/Indicator: TA98, Metabolic Activation: HAMSTER, LIVER, S-9, AROCLOR 1254 (5%), Method: PREINCUBATION) was “inactive; negative”; the mutagenic call (Test System: AMES SALMONELLA TYPHIMURIUM, Strain/Indicator: TA98, Metabolic Activation: HAMSTER, LIVER, S-9, AROCLOR 1254 (30%), Method: PREINCUBATION) is “active; positive”; the mutagenic call under setting [1] is “inactive; negative”; the mutagenic call (Test System: AMES SALMONELLA TYPHIMURIUM, Strain/Indicator: TA98, Metabolic Activation: RAT, LIVER, S-9, AROCLOR 1254 (5, 10 OR 30%), Method: PREINCUBATION) was “inactive; negative”; the mutagenic call (Test System: AMES SALMONELLA TYPHIMURIUM, Strain/Indicator: TA98, Metabolic Activation: RAT, LIVER, S-9, AROCLOR 1254 (10%), Method: PREINCUBATION) is “inactive; negative”; the mutagenic call (Test System: AMES SALMONELLA TYPHIMURIUM, Strain/Indicator: TA100, Metabolic Activation: HAMSTER, LIVER, S-9, AROCLOR 1254 (5%), Method: PREINCUBATION) is “inactive; negative”. For the same compound, the mutagenic call is “active; positive” (Test System: AMES SALMONELLA TYPHIMURIUM, Strain/Indicator: TA100, Metabolic Activation: HAMSTER, LIVER, S-9, AROCLOR 1254 (30%), Method: PREINCUBATION); “inactive; negative” (Test System: AMES SALMONELLA TYPHIMURIUM, Strain/Indicator: TA100, Metabolic Activation: RAT, LIVER, S-9, AROCLOR 1254 (5, 10 OR 30%), Method: PREINCUBATION); “inactive; negative” (Test System: AMES SALMONELLA TYPHIMURIUM, Strain/Indicator: TA100, Metabolic Activation: RAT, LIVER, S-9, AROCLOR 1254 (10%), Method: PREINCUBATION); “inactive; negative” (Test System: AMES SALMONELLA TYPHIMURIUM, Strain/Indicator: TA1535, Metabolic Activation: HAMSTER, LIVER, S-9, AROCLOR 1254 (10%), Method: PREINCUBATION); “inactive; negative” under setting [5]; “inactive; negative” (Test System: AMES SALMONELLA TYPHIMURIUM, Strain/Indicator: TA1535, Metabolic Activation: RAT, LIVER, S-9, AROCLOR 1254 (10%), Method: PREINCUBATION). Besides, the mutagenic call is “inactive; negative” (Test System: AMES SALMONELLA TYPHIMURIUM, Strain/Indicator: TA1537, Metabolic Activation: HAMSTER, LIVER, S-9, AROCLOR 1254 (10%), Method: PREINCUBATION); “inactive; negative” (Test System: AMES SALMONELLA TYPHIMURIUM, Strain/Indicator: TA1537, Metabolic Activation: NONE, Method: PREINCUBATION); “inactive; negative” (Test System: AMES SALMONELLA TYPHIMURIUM, Strain/Indicator: TA1537, Metabolic Activation: RAT, LIVER, S-9, AROCLOR 1254 (10%), Method: PREINCUBATION).
As to `O=C(Nc1ccccc1)Nc1snc2ccccc12`, the mutagenic call under setting [3] is “inactive; negative”; the mutagenic call (Test System: AMES SALMONELLA TYPHIMURIUM, Strain/Indicator: TA100, Metabolic Activation: S-9, Method: STANDARD PLATE) is “inactive; negative”; the mutagenic call (Test System: AMES SALMONELLA TYPHIMURIUM, Strain/Indicator: TA1537, Metabolic Activation: NONE, Method: STANDARD PLATE) is “inactive; negative”; the mutagenic call (Test System: AMES SALMONELLA TYPHIMURIUM, Strain/Indicator: TA1537, Metabolic Activation: S-9, Method: STANDARD PLATE) is “inactive; negative”.
